Values of other authors, collected in patent US20070122363A1, “CORPOREAL DELIVERY OF CAROTENOIDS” (priority 2005, published 2007).

Conditions: 50 mg daily, about 22,000 male physicians, versus placebo

In the case of CC1=C(/C=C/C(C)=C/C=C/C(C)=C/C=C/C=C(C)/C=C/C=C(C)/C=C/C2=C(C)CCCC2(C)C)C(C)(C)CCC1 [beta-carotene, beta, beta-carotene], the adverse health effects is listed as “no adverse health effects”.
